Measurements reported in ChEMBL document CHEMBL1201862, “PubChem BioAssay data set” (2004).
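The compound was tested at five concentrations on cells cultured in 96-well plates, with a 48-hour exposure period. GI50 marks 50% less growth.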 Activity calls are given as the source filed them. Rule as the data show it: active = GI50 up to about 1.1 µM and inactive = higher.

Legend:
Test in all cases: inhibition of tumour cell growth, NCI panel, 48 h
HOP-92 = tested on: HOP-92
SK-MEL-2 = tested on: SK-MEL-2
SF-539 = tested on: SF-539
OVCAR-5 = tested on: OVCAR-5
NCI-H522 = tested on: NCI-H522
NCI/ADR-RES = tested on: NCI/ADR-RES
NCI-H23 = tested on: NCI-H23
HCT-15 = tested on: HCT-15
BT-549 = tested on: BT-549
HL-60 = tested on: HL-60
EKVX = tested on: EKVX
TK-10 = tested on: TK-10
U-251 = tested on: U-251
RXF 393 = tested on: RXF 393
OVCAR-3 = tested on: OVCAR-3
Hs-578T = tested on: Hs-578T
SW-620 = tested on: SW-620
CAKI-1 = tested on: CAKI-1
A498 = tested on: A498
RPMI-8226 = tested on: RPMI-8226
SN12C = tested on: SN12C
HCT-116 = tested on: HCT-116
CCRF-CEM = tested on: CCRF-CEM
HT-29 = tested on: HT-29
MDA-N = tested on: MDA-N
OVCAR-4 = tested on: OVCAR-4
MDA-MB-231 = tested on: MDA-MB-231
SF-268 = tested on: SF-268
OVCAR-8 = tested on: OVCAR-8
SK-MEL-5 = tested on: SK-MEL-5
PC-3 = tested on: PC-3
MCF7 = tested on: MCF7
NCI-H460 = tested on: NCI-H460
Malme-3M = tested on: Malme-3M
COLO 205 = tested on: COLO 205
MDA-MB-435 = tested on: MDA-MB-435
786-0 = tested on: 786-0
SNB-19 = tested on: SNB-19
DU-145 = tested on: DU-145
ACHN = tested on: ACHN
K562 = tested on: K562
UO-31 = tested on: UO-31
T47D = tested on: T47D
SK-MEL-28 = tested on: SK-MEL-28
MOLT-4 = tested on: MOLT-4
LOX IMVI = tested on: LOX IMVI
HCC 2998 = tested on: HCC 2998
NCI-H226 = tested on: NCI-H226
UACC-62 = tested on: UACC-62
SF-295 = tested on: SF-295
UACC-257 = tested on: UACC-257
A549 = tested on: A549
KM12 = tested on: KM12
SR = tested on: SR
M14 = tested on: M14
IGROV-1 = tested on: IGROV-1
SK-OV-3 = tested on: SK-OV-3
SNB-75 = tested on: SNB-75
HOP-62 = tested on: HOP-62

Measured: GI50

N#Cc1c(Cl)c2cccnc2n2c1nc1ccccc12
active: HL-60 0.507 µM | CCRF-CEM 0.9 µM | K562 0.427 µM | SR 1.08 µM
inactive: HOP-92 1.97 µM | SK-MEL-2 8 µM | SF-539 2.35 µM | OVCAR-5 14.2 µM | NCI-H522 1.17 µM | NCI/ADR-RES 2.69 µM | NCI-H23 2.07 µM | BT-549 4.44 µM | EKVX 4.22 µM | TK-10 1.67 µM | U-251 4.28 µM | RXF 393 1.42 µM | OVCAR-3 2.72 µM | Hs-578T 2.79 µM | SW-620 1.87 µM | CAKI-1 1.9 µM | A498 17.3 µM | RPMI-8226 1.78 µM | SN12C 2.04 µM | HCT-116 1.7 µM | HT-29 1.94 µM | MDA-N 3.62 µM | OVCAR-4 2.66 µM | MDA-MB-231 2.13 µM | SF-268 2.66 µM | OVCAR-8 1.96 µM | SK-MEL-5 1.13 µM | PC-3 2.41 µM | MCF7 2.71 µM | NCI-H460 7.01 µM | Malme-3M 1.84 µM | COLO 205 1.99 µM | MDA-MB-435 4.3 µM | 786-0 1.77 µM | SNB-19 15.8 µM | DU-145 1.98 µM | ACHN 1.78 µM | UO-31 1.81 µM | T47D 2 µM | SK-MEL-28 3.64 µM | MOLT-4 2.04 µM | LOX IMVI 1.66 µM | HCC 2998 3.85 µM | NCI-H226 2.93 µM | UACC-62 3.96 µM | SF-295 19 µM | UACC-257 2.69 µM | A549 6.59 µM | KM12 6.41 µM | M14 3.15 µM | IGROV-1 1.41 µM | SK-OV-3 15.5 µM | SNB-75 4.38 µM | HOP-62 16.6 µM
2.04 µM: HCT-15

C[N+](C)([O-])CCCNc1c2ccccc2nc2cccc([N+](=O)[O-])c12
inactive: NCI/ADR-RES 8.2 µM | CAKI-1 1.72 µM | UO-31 1.41 µM
0.457 µM: HCT-15
active: HOP-92 0.31 µM | SK-MEL-2 0.214 µM | SF-539 1.07 µM | OVCAR-5 0.355 µM | NCI-H522 0.115 µM | NCI-H23 0.156 µM | BT-549 0.703 µM | HL-60 0.351 µM | EKVX 0.28 µM | TK-10 0.982 µM | U-251 0.305 µM | RXF 393 0.163 µM | OVCAR-3 0.308 µM | Hs-578T 0.938 µM | SW-620 0.203 µM | A498 0.164 µM | RPMI-8226 0.313 µM | SN12C 0.265 µM | HCT-116 0.228 µM | CCRF-CEM 0.249 µM | HT-29 0.179 µM | MDA-N 0.173 µM | OVCAR-4 0.288 µM | MDA-MB-231 0.33 µM | SF-268 0.274 µM | OVCAR-8 0.635 µM | SK-MEL-5 0.161 µM | PC-3 0.219 µM | MCF7 0.113 µM | NCI-H460 0.142 µM | Malme-3M 0.173 µM | COLO 205 0.143 µM | MDA-MB-435 0.226 µM | 786-0 0.166 µM | SNB-19 0.409 µM | DU-145 0.299 µM | ACHN 0.324 µM | K562 0.253 µM | T47D 0.257 µM | SK-MEL-28 0.684 µM | MOLT-4 0.142 µM | LOX IMVI 0.51 µM | HCC 2998 0.164 µM | NCI-H226 0.313 µM | UACC-62 0.219 µM | SF-295 0.592 µM | UACC-257 0.536 µM | A549 0.175 µM | KM12 0.412 µM | SR 0.0653 µM | M14 0.258 µM | IGROV-1 0.259 µM | SK-OV-3 0.631 µM | SNB-75 0.456 µM | HOP-62 0.385 µM

O=C(c1ccccc1)c1ccc(C(c2c(O)c3ccccc3oc2=O)c2c(O)c3ccccc3oc2=O)cc1
inactive: HOP-92 18.5 µM | SK-MEL-2 28.2 µM | SF-539 30.3 µM | OVCAR-5 23.4 µM | NCI-H522 16.6 µM | NCI/ADR-RES 22.9 µM | NCI-H23 20 µM | BT-549 22.5 µM | HL-60 34.1 µM | EKVX 28 µM | TK-10 17.9 µM | U-251 26.6 µM | RXF 393 27.2 µM | OVCAR-3 26.2 µM | Hs-578T 24.7 µM | SW-620 43.9 µM | CAKI-1 16.8 µM | A498 24.5 µM | RPMI-8226 18.5 µM | SN12C 28.4 µM | HCT-116 26.7 µM | CCRF-CEM 27.9 µM | HT-29 25.1 µM | MDA-N 28.2 µM | OVCAR-4 26.9 µM | MDA-MB-231 26.7 µM | SF-268 22.5 µM | OVCAR-8 27 µM | SK-MEL-5 24.5 µM | PC-3 27 µM | MCF7 34.5 µM | NCI-H460 40.8 µM | Malme-3M 17.9 µM | COLO 205 31.7 µM | MDA-MB-435 29.4 µM | 786-0 21.2 µM | SNB-19 19.6 µM | DU-145 31.2 µM | ACHN 20 µM | K562 33.5 µM | UO-31 14.8 µM | T47D 34.2 µM | SK-MEL-28 28.8 µM | MOLT-4 19.5 µM | LOX IMVI 29.9 µM | HCC 2998 21 µM | NCI-H226 23.3 µM | UACC-62 17.3 µM | SF-295 21.2 µM | UACC-257 22.8 µM | A549 26.9 µM | KM12 18.7 µM | SR 20.1 µM | M14 24.7 µM | IGROV-1 23.3 µM | SK-OV-3 18.9 µM | SNB-75 19.1 µM | HOP-62 28.7 µM
30.5 µM: HCT-15

CN(C)c1ccc(/C=C(\NC(=O)c2ccccc2)C2=NC(CCC(=O)O)C(=O)O2)cc1 (stereo unspecified)
inactive: HOP-92 > 50 µM | SK-MEL-2 > 50 µM | SF-539 > 35.2 µM | OVCAR-5 > 50 µM | NCI-H522 17.1 µM | NCI/ADR-RES 49 µM | NCI-H23 > 50 µM | BT-549 > 50 µM | HL-60 49.9 µM | EKVX > 50 µM | TK-10 > 50 µM | U-251 > 47.2 µM | RXF 393 > 50 µM | OVCAR-3 > 50 µM | Hs-578T > 50 µM | SW-620 > 50 µM | CAKI-1 > 50 µM | A498 > 50 µM | RPMI-8226 35.9 µM | SN12C > 50 µM | HCT-116 > 50 µM | CCRF-CEM > 43.9 µM | HT-29 > 50 µM | MDA-N > 50 µM | OVCAR-4 > 35.1 µM | MDA-MB-231 > 50 µM | SF-268 > 50 µM | OVCAR-8 > 41.4 µM | SK-MEL-5 > 48.3 µM | PC-3 > 50 µM | MCF7 > 50 µM | NCI-H460 > 50 µM | Malme-3M > 31.3 µM | COLO 205 > 50 µM | MDA-MB-435 > 50 µM | 786-0 > 50 µM | SNB-19 33.2 µM | DU-145 > 50 µM | ACHN > 50 µM | K562 > 50 µM | UO-31 > 50 µM | T47D > 50 µM | SK-MEL-28 > 50 µM | MOLT-4 > 50 µM | LOX IMVI > 44.9 µM | HCC 2998 > 50 µM | NCI-H226 > 50 µM | UACC-62 > 50 µM | SF-295 > 50 µM | UACC-257 > 50 µM | A549 > 50 µM | KM12 42.8 µM | SR 49.2 µM | M14 > 50 µM | IGROV-1 > 50 µM | SK-OV-3 > 50 µM | SNB-75 > 50 µM | HOP-62 15.9 µM
> 50 µM: HCT-15
